Laboratory results reported in PubChem BioAssay (NCI).
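Dose response: 5 concentrations. Exposure: 48 h. Format: 96-well plates. Endpoint: linear interpolation; highest concentration if not reached. At the TGI there is no net growth.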

Columns and labels:
Assay in all cases: inhibition of tumour cell growth, NCI panel, 48 h
RPMI-8226 leukemia = system: RPMI-8226 leukemia
K-562 leukemia = system: K-562 leukemia
NCI-H522 lung = system: NCI-H522 lung
HT29 colon = system: HT29 colon
UO-31 renal = system: UO-31 renal
MALME-3M melanoma = system: MALME-3M melanoma
CCRF-CEM leukemia = system: CCRF-CEM leukemia
SNB-75 CNS = system: SNB-75 CNS
NCI-H460 lung = system: NCI-H460 lung
SK-MEL-2 melanoma = system: SK-MEL-2 melanoma

| SMILES | TGI (RPMI-8226 leukemia) [µM] | TGI (K-562 leukemia) [µM] | TGI (NCI-H522 lung) [µM] | TGI (HT29 colon) [µM] | TGI (UO-31 renal) [µM] | TGI (MALME-3M melanoma) [µM] | TGI (CCRF-CEM leukemia) [µM] | TGI (SNB-75 CNS) [µM] | TGI (NCI-H460 lung) [µM] | TGI (SK-MEL-2 melanoma) [µM] |
| --- | --- | --- | --- | --- | --- | --- | --- | --- | --- | --- |
| CCOc1ccc(/C=C(\Cl)c2ccc(OC)c(OC)c2)cc1 | > 100 | > 100 | 74.1 | 40.9 | > 100 | > 100 | > 100 | > 100 |  |  |
| CC(C)CCC[C@@H](C)[C@H]1CCC2C3CC=C4C[C@@H](Oc5c6ccccc6nc6ccccc56)CCC4C3CCC21 (stereo partly drawn) |  | > 50 | > 50 | > 50 | > 50 | > 50 | > 50 |  | > 50 | > 50 |
| O=C(Nc1nc2c(=O)[nH]cnc2s1)c1ccccc1 |  | > 100 | > 100 | > 100 | > 100 | > 100 | > 100 | > 100 | > 100 | > 100 |
| O=C(Nc1c[nH]c(=O)[nH]c1=O)C(Cl)Cl | > 100 | > 100 | > 100 | > 100 | > 100 | > 100 | > 100 | > 100 |  | > 100 |
| COC1=C(N=[N+]=[N-])C(=O)c2ncccc2C1=O | 4.89 | 15.2 | 3.9 | 33 | 27.6 | 5.03 |  | 26 | 32.6 | 37.5 |
| Cc1ccc(S(=O)(=O)/N=C(\NN)Nc2ccc(Cl)cc2)cc1 | > 100 | > 100 |  | > 100 | > 100 |  | > 100 | > 100 | > 100 | > 100 |
| COc1cccc(-c2ccc3c4c2O[C@H]2c5[nH]c6ccccc6c5C[C@@]5(O)[C@@H](C3)N(CC3CC3)CC[C@]425)c1 | 5.25 | 4.98 |  | 3.19 | 3.1 | 2.88 | > 100 |  | 3.22 | 3.69 |
| CCCCCCCCCCCCCCCCCCNc1ccn(C2OC(COP(=O)(O)OCC3CCC(n4cnc5c(=O)[nH]cnc54)O3)C(O)C2O)c(=O)n1 (stereo not drawn) |  |  | > 100 | > 100 | > 100 | > 100 | > 100 | > 100 | > 100 | > 100 |
| CCCCCC(=O)N[C@@H](c1ccccc1)C(O)C(=O)OC1C[C@@]2(O)C(OC(=O)c3ccccc3)C3[C@](C)(C(=O)[C@H](O)C(=C1C)C2(C)C)C(OC1OCC(O)C(O)C1O)C[C@H]1OC[C@@]31OC(C)=O (stereo partly drawn) | > 100 | > 100 | 3.92 | > 36.8 | > 100 | > 26.1 | > 100 | 4.52 | > 100 |  |
| O=c1[nH]nc(-c2ccccc2)n1/N=C/c1c[nH]c2ccccc12 | > 100 | > 100 | > 100 | > 100 | > 100 | > 100 | > 100 |  | > 100 | > 100 |
| Cc1ccc(N=Nc2c(O)ccc3cc(S(=O)(=O)O)ccc23)c(C)c1 |  | > 100 | > 100 | > 100 | > 100 | > 100 | > 100 | > 100 | > 100 | > 100 |
| CN1C(=S)C(c2ccccc2)Sc2ccccc21 (stereo not drawn) | > 100 | > 100 | > 100 |  | > 100 | > 100 | > 100 | > 100 | > 100 |  |
| CCOC(=O)c1cc(C(=O)c2ccccc2)n2nc(-c3ccc(Cl)cc3)ccc12 | > 100 | > 100 | 43.7 | 64.2 | 27.1 | 46.3 | > 100 |  | 50.9 | 32.6 |
| CC(C)SC(C)(NC(=O)C1C(C)(C)CCC1(C)C)C(=O)O (stereo not drawn) | > 100 | > 100 |  |  | > 100 |  | > 100 | > 100 | > 100 | > 100 |
| O=C(N=C1SCCN1C(=O)C(C(F)(F)F)C(F)(F)F)C(C(F)(F)F)C(F)(F)F | > 100 | > 100 | > 100 | > 100 | > 100 | > 100 | > 100 |  | > 100 | > 100 |
| C=CCOCn1cnc2c(N)ncnc21 | > 100 | > 100 |  | > 100 | > 100 | > 100 | > 100 | > 100 | > 100 | > 100 |
| O=C(NCCC(F)(F)C(F)(F)C(F)(F)C(F)(F)F)NC1OC(CO)C(O)C(O)C1O (stereo not drawn) | > 100 | > 100 |  | > 100 | > 100 | > 100 | > 100 | > 100 | > 100 | > 100 |
| COC(=O)/C=C(\C)C(=O)N(C)c1ccccc1I | > 100 | > 100 |  |  | > 100 | > 100 | > 100 | > 100 | > 100 | > 100 |
| COc1cc(C2SCC(=O)N2c2ccc(-n3c(-c4ccccc4)nc4ccccc4c3=O)cc2)ccc1O (stereo not drawn) | > 100 | > 100 | > 100 | > 100 | 97.7 | > 100 | > 100 |  | > 100 | > 100 |
| COc1ccc(S(=O)(=O)O)cc1-n1nc(C(=O)Nc2ccccc2)n[n+]1-c1cc(S(=O)(=O)[O-])ccc1OC | > 100 | > 100 | > 100 | > 100 | > 100 | > 100 | > 100 | > 100 | > 100 |  |
| O=c1c(SSc2coc3cc(F)ccc3c2=O)coc2cc(F)ccc12 | > 100 | 64.2 | 47.3 | 32.3 | 52.7 | > 100 | 37.9 | 33.6 | 98.3 |  |
| Cn1c(=O)c2c(nc3n(Cc4ccccc4)c(=O)c(NCCBr)cn23)n(C)c1=O | > 100 | > 100 | 62.8 | > 100 | 36 |  | > 100 | 49.8 | > 100 | 74.2 |
| Cc1sc2nc(-c3cc([N+](=O)[O-])c(Cl)cc3Cl)c(/C=N/N=C(N)N)n2c1C | 54 | 9.95 | 34.2 | 9 | 26.4 | 39.3 | > 100 |  | 54.7 | 5.78 |
